Consider three compounds from patent publication US8703779B2, “Preparation of crystalline forms of dihydropyrazolopyrimidinone” (Merck Sharp & Dohme Corp., priority 2009, dated 2014).

One data set concerns the target Weel kinase (Homo sapiens, UniProt P30291). The settings on record: cited from earlier work.
Data set [1] is described as follows: relative thermodynamic stability of crystalline forms. The format is physicochemical. As for the experimental part: The novel crystalline forms of Compound A or a salt thereof, especially the hemihydrates described herein, can be provided stably and constantly from the standpoint of the manufacturing process, and are useful in the treatment of cancer. […] The relative stability of the hemihydrates and monohydrate Form G at relative humidity higher than 93% has been difficult to establish, because the solubility of the three crystalline forms are very close (difference <1 mg/mL) and the conversion is very slow.

Chain of Weel kinase (P30291 whole entry): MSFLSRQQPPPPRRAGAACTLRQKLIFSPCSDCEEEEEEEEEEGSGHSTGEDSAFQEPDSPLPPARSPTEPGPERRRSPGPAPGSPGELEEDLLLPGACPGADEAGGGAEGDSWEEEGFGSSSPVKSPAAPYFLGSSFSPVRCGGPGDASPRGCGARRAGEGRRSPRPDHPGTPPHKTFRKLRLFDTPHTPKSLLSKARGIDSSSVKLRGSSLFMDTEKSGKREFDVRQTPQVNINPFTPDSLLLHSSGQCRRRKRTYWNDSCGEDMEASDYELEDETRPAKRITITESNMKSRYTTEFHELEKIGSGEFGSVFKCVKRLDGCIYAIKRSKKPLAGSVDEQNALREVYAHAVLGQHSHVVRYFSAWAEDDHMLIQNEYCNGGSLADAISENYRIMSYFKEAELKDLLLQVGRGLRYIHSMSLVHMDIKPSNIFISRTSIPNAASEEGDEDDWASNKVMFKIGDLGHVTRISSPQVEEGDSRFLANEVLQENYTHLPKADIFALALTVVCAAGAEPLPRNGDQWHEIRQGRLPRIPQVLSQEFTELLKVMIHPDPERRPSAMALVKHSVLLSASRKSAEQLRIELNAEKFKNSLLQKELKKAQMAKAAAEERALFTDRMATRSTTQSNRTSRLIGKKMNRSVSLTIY

Take `C=CCn1c(=O)c2cnc(Nc3ccc(N4CCN(C)CC4)cc3)nc2n1-c1cccc(C(C)(C)O)n1` [Compound A, 2-allyl-1-[6-(1-hydroxy-1-methylethyl)pyridin-2-yl]-6-{[4-(4-methylpiperazin-1-yl)phenyl]amino}-1,2-dihydro-3H-pyrazolo[3,4-d]pyrimidin-3-one]: on Weel kinase, the “Weel kinase inhibitory effect” value is “excellent Weel kinase inhibitory effect”.
Turning to `C=CCn1c(=O)c2cnc(Nc3ccc(N4CCN(C)CC4)cc3)nc2n1-c1cccc(C(C)(C)O)n1` [crystalline hemihydrate form I, 2-allyl-1-[6-(1-hydroxy-1-methylethyl)pyridin-2-yl]-6-{[4-(4-methylpiperazin-1-yl)phenyl]amino}-1,2-dihydro-3H-pyrazolo[3,4-d]pyrimidin-3-one], in data set [1] (temperatures up to 44° C. and relative humidity range of 14-93%), the “thermodynamic stability relative to other known forms” value was “more stable thermodynamically than other known forms”.
As to `C=CCn1c(=O)c2cnc(Nc3ccc(N4CCN(C)CC4)cc3)nc2n1-c1cccc(C(C)(C)O)n1` [crystalline hemihydrate form II, 2-allyl-1-[6-(1-hydroxy-1-methylethyl)pyridin-2-yl]-6-{[4-(4-methylpiperazin-1-yl)phenyl]amino}-1,2-dihydro-3H-pyrazolo[3,4-d]pyrimidin-3-one], the “thermodynamic stability relative to other known forms” value in data set [1] (temperatures equal or higher than 48° C. and relative humidity range of 19-93%) was “more stable thermodynamically than other known forms”.
